Measured values reported in EP0086092A2, “Antifungal compositions” (priority 1982, dated 1983).
Values joined by “and” are separate entries in the source; they are usually repeats but may differ in a detail not shown here. Equal entries are not always repeated. Marks after values point to notes of the source that are not given here.

System: Candida albicans B 311
Experiment: disc diffusion, zone of inhibition on seeded agar plates
Format: cell-based
Conditions: for Zone Size: Table I, glucose as carbon source, composition of 1 unit by weight aculeacin A + 5 units fatty acid; for Zone Size / Zone Size YNB agar: YNB agar; for Zone Size / Zone Size Sabouarud Agar / Zone Size YNB agar / Zone Size B 311: 16-18 h; for Zone Size / Zone Size B 311: 28-37°C; for Zone Size Sabouarud Agar / Zone Size YNB agar: Table II, 37°C; for Zone Size Sabouarud Agar: Sabouarud dextrose agar; for Zone Size YNB agar: lysine; for increase in the intrinsic activity of aculeacin A: Table II test; for Zone Size B 311: Tables IV-b, IV-c
Protocol: The antifungal activity of aculeacin A and the compositions of aculeacin A and fatty acids was measured by disc diffusion.
The effects of a number of fatty acids on the antifungal activity of aculeacin A were determined by utilizing seeded plates of Candida albicans B 311 in yeast nitrogen base (YNB) agar (Difco) with glucose as the carbon source. A composition containing one unit by weight of aculeacin A and 5 units of fatty acid or the sodium salt thereof was spotted on the seeded plates and the size of the zone of inhibition after 16-18 hours incubation at 28-37 °C was measured.
Additional fatty acids were tested to determine , if they increased the intrinsic activity of aculeacin A against C. albicans B 311 utilizing seeded plates of YNB agar (Difco) with lysine as the carbon source and seeded plates of Sabouarud dextrose agar (Difco). Compositions containg one µg of aculeacin A and various amounts of the fatty acid was spotted on the seeded plates and the size of the zone of inhibition after 16-18 hours incubation at 37 °C was measured.
The antifungal effects of compositions containing a single amount of oleic acid as the sodium salt while varying the amounts of aculeacin A were determined by utilizing seeded plates of Candida albicans B 311 in Sabouarud dextrose agar and measuring the zone of inhibition after 16-18 hours incubation at 28-37°C.
The antifungal effects of compositions containing a single amount of aculeacin A while varying the amounts. of oleic acid as the sodium salt were determined by utilizing seeded plates of Candida albicans strains B 311, BC 759 and B 3153A and measuring the zone of inhibition after 16-18 hours at 28-37°C. This test was also performed with linoleic acid and linolenic acid.
The seeded plates of Candida albicans strains B 311, BC 759, and B 3153A were prepared by inoculating 50 ml of trypticase soy broth (BBL) with one ml of the preserved frozen culture and incubating the inoculum at 37°C for 7 hours on a rotary shaker. Two milliliters of this culture were used to inoculate one liter of Sabouarud dextrose agar (Difco) at 50°C and 15 milliliters of the resultant medium poured into 150 mm petri-dishes.

[1] = aculeacin A 0 µg, fatty acid 500 µg alone
[2] = aculeacin A 0 µg, fatty acid 1000 µg alone
[3] = aculeacin A 0 µg, fatty acid 2000 µg alone
[4] = composition of aculeacin A 1 µg + fatty acid 500 µg
[5] = composition of aculeacin A 1 µg + fatty acid 1000 µg
[6] = composition of aculeacin A 1 µg + fatty acid 2000 µg
[7] = aculeacin A 0 µg, fatty acid 250 µg alone
[8] = composition of aculeacin A 1 µg + fatty acid 250 µg
[9] = aculeacin A 0 µg, fatty acid 50 µg alone
[10] = aculeacin A 0 µg, fatty acid 100 µg alone
[11] = aculeacin A 0 µg, fatty acid 200 µg alone
[12] = composition of aculeacin A 1 µg + fatty acid 50 µg
[13] = composition of aculeacin A 1 µg + fatty acid 100 µg
[14] = composition of aculeacin A 1 µg + fatty acid 200 µg

CCCCCCCCCC(=O)O [Decanoic Acid]
Zone Size: 17 mm

γ-Linoleic Acid
Zone Size Sabouarud Agar [1]: 0 mm | Zone Size Sabouarud Agar [2]: 0 mm | Zone Size Sabouarud Agar [3]: 0 mm | Zone Size Sabouarud Agar [4]: 20 mm | Zone Size Sabouarud Agar [5]: 24 mm | Zone Size Sabouarud Agar [6]: 25 mm | Zone Size YNB agar [1]: 0 mm | Zone Size YNB agar [2]: 0 mm | Zone Size YNB agar [3]: 0 mm | Zone Size YNB agar [4]: 14 mm | Zone Size YNB agar [5]: 15 mm | Zone Size YNB agar [6]: 22 mm | increase in the intrinsic activity of aculeacin A (composition of 2000 units by weight fatty acid to one unit aculeacin A): surprising increase in the intrinsic activity of aculeacin A

CCCCCC/C=C\CCCCCCCC(=O)O [Palmitoleic Acid]
Zone Size: 26 mm

CCCCC/C=C\C/C=C\C/C=C\C/C=C\CCCC(=O)O [Arachidonic Acid]
Zone Size Sabouarud Agar [7]: 0 mm | Zone Size Sabouarud Agar [1]: 0 mm | Zone Size Sabouarud Agar [2]: 0 mm | Zone Size Sabouarud Agar [8]: 20* mm | Zone Size Sabouarud Agar [4]: 20* mm | Zone Size Sabouarud Agar [5]: 20* mm | Zone Size YNB agar [7]: 0 mm | Zone Size YNB agar [1]: 0 mm | Zone Size YNB agar [2]: 0 mm | Zone Size YNB agar [8]: 20 mm | Zone Size YNB agar [4]: 20 mm | Zone Size YNB agar [5]: 26 mm

CCCCCCCC(=O)O [Caprylic Acid]
Zone Size: 16 mm

CCCCCC/C=C/CCCCCCCCCC(=O)O [Vaccinic Acid]
Zone Size Sabouarud Agar [1]: 0 mm | Zone Size Sabouarud Agar [2]: 0 mm | Zone Size Sabouarud Agar [3]: 0 mm | Zone Size Sabouarud Agar [4]: 25 mm | Zone Size Sabouarud Agar [5]: 25 mm | Zone Size Sabouarud Agar [6]: 26 mm | Zone Size YNB agar [1]: 0 mm | Zone Size YNB agar [2]: 0 mm | Zone Size YNB agar [3]: 0 mm | Zone Size YNB agar [4]: 17 mm | Zone Size YNB agar [5]: 17 mm | Zone Size YNB agar [6]: 17 mm

CC/C=C\C/C=C\C/C=C\CCCCCCCC(=O)O [Linolenic Acid]
Zone Size: 22 mm | Zone Size B 311 (aculeacin A 0 µg, fatty acid 28.1 µg alone): 0 mm | Zone Size B 311 (aculeacin A 0 µg, fatty acid 56.2 µg alone): 0 mm | Zone Size B 311 (aculeacin A 0 µg, fatty acid 112.5 µg alone): 0 mm | Zone Size B 311 (aculeacin A 0.625 µg + fatty acid 28.1 µg): 20 mm | Zone Size B 311 (aculeacin A 0.625 µg + fatty acid 56.2 µg): 19 mm | Zone Size B 311 (aculeacin A 0.625 µg + fatty acid 112.5 µg): 19 mm

CCCCC/C=C/C/C=C/CCCCCCCC(=O)O [Linoelaidic Acid]
Zone Size Sabouarud Agar [7]: 0 mm | Zone Size Sabouarud Agar [1]: 0 mm | Zone Size Sabouarud Agar [2]: 0 mm | Zone Size Sabouarud Agar [8]: 20* mm | Zone Size Sabouarud Agar [4]: 20* mm | Zone Size Sabouarud Agar [5]: 24* mm | Zone Size YNB agar [7]: 0 mm | Zone Size YNB agar [1]: 0 mm | Zone Size YNB agar [2]: 0 mm | Zone Size YNB agar [8]: 26 mm | Zone Size YNB agar [4]: 17 mm | Zone Size YNB agar [5]: 16 mm | increase in the intrinsic activity of aculeacin A (composition of 250 units by weight fatty acid to one unit aculeacin A): surprising increase in the intrinsic activity of aculeacin A

Homo-γ-Linoleic Acid
Zone Size Sabouarud Agar [9]: 0 mm | Zone Size Sabouarud Agar [10]: 0 mm | Zone Size Sabouarud Agar [11]: 0 mm | Zone Size Sabouarud Agar [12]: 15 mm | Zone Size Sabouarud Agar [13]: 15 mm | Zone Size Sabouarud Agar [14]: 15 mm | Zone Size YNB agar [9]: 0 mm | Zone Size YNB agar [10]: 0 mm | Zone Size YNB agar [11]: 0 mm | Zone Size YNB agar [12]: 15* mm | Zone Size YNB agar [13]: 15* mm | Zone Size YNB agar [14]: 17* mm

CCCCCCCCCCC(O)C(=O)O (stereo not drawn) [α-Hydroxy Lauric Acid]
Zone Size Sabouarud Agar [7]: Trace | Zone Size Sabouarud Agar [1]: 10 (hazy) mm | Zone Size Sabouarud Agar [2]: 10 (hazy) mm | Zone Size Sabouarud Agar [8]: 15 mm | Zone Size Sabouarud Agar [4]: 15 mm | Zone Size Sabouarud Agar [5]: 20 mm | Zone Size YNB agar [7]: Trace | Zone Size YNB agar [1]: Trace | Zone Size YNB agar [2]: Trace | Zone Size YNB agar [8]: 20 mm | Zone Size YNB agar [4]: 24 mm | Zone Size YNB agar [5]: 25 mm

CCCCCCCCCCCCCCCCCCCCCC(=O)O [Behenic Acid]
Zone Size Sabouarud Agar [7]: 0 mm | Zone Size Sabouarud Agar [1]: 0 mm | Zone Size Sabouarud Agar [2]: 0 mm | Zone Size Sabouarud Agar [8]: 15 mm | Zone Size Sabouarud Agar [4]: 14 mm | Zone Size Sabouarud Agar [5]: 20 mm | Zone Size YNB agar [7]: 0 mm | Zone Size YNB agar [1]: 0 mm | Zone Size YNB agar [2]: 0 mm | Zone Size YNB agar [8]: 14 mm | Zone Size YNB agar [4]: 14 mm | Zone Size YNB agar [5]: 15 mm

CCCCCCCCCCCC(=O)O [Lauric Acid]
Zone Size: 22 mm

CCCCCCCC/C=C\CCCCCCCCCCCC(=O)O [Erucic Acid]
Zone Size Sabouarud Agar [7]: 0 mm | Zone Size Sabouarud Agar [1]: 0 mm | Zone Size Sabouarud Agar [2]: 0 mm | Zone Size Sabouarud Agar [4]: 17 mm | Zone Size Sabouarud Agar [5]: Trace | Zone Size YNB agar [7]: 0 mm | Zone Size YNB agar [1]: 0 mm | Zone Size YNB agar [2]: 0 mm | Zone Size YNB agar [4]: 15 mm and 17 mm | Zone Size YNB agar [5]: 15 mm
